{
  "source": "patent US20260306492A1",
  "about": "(BRISTOL-MYERS SQUIBB COMPANY, priority 2023, published 2026)",
  "key": {"[1]": {"experiment": "Bleeding in AXIOMATIC-TKR and AXIOMATIC-SSP", "format": "in vivo, human", "source_text": "[…]. […] […]. […] […]."}, "[2]": {"test_system": "participants with non-lacunar, non-cardioembolic ischemic stroke or TIA", "experiment": "AXIOMATIC-SSP Phase 2, safety (bleeding, adverse events)"}, "[3]": {"experiment": "Milvexian pharmacokinetics in humans (healthy volunteers / terminal half-life)", "source_text": "(AXIOMATIC-TKR Phase II). […] “Half-life (t1/2),” as used herein, refers to apparent terminal elimination half-life having a mean value calculated using formula t1/2=loge2/λz, where λz is the apparent terminal elimination rate-constant estimated by linear regression using the terminal log-linear phase of the logarithmic (log) transformed concentration vs time data."}, "[4]": {"test_system": "participants undergoing primary unilateral elective TKR surgery", "experiment": "Total venous thromboembolism (VTE) in TKR patients, AXIOMATIC-TKR", "format": "in vivo, human"}, "[5]": {"test_system": "participants with non-lacunar, non-cardioembolic ischemic stroke or TIA", "experiment": "AXIOMATIC-SSP Phase 2, efficacy (ischemic stroke / covert brain infarction)", "format": "in vivo, human"}, "[6]": {"test_system": "intrinsic and final common pathways of the coagulation cascade (aPTT)", "experiment": "Activated partial thromboplastin time (aPTT), AXIOMATIC-TKR Phase II", "format": "in vivo, human", "conditions": "25-200 mg QD/BID", "source_text": "As used herein, the term “activated partial thromboplastin time (aPTT)” refers to a measure of the intrinsic and final common pathways of the coagulation cascade. It represents the time, in seconds, for plasma to clot after addition of phospholipid, an intrinsic pathway activator, and calcium. […] The term ‘partial’ means phospholipid is present but no tissue factor. The normal and reference ranges vary depending on reagent and instrument combinations, particularly with the phospholipid composition.\nIn some embodiments, aPTT is measured as follows: Plasma samples are incubated with Actin FS aPTT assay reagent containing a standard amount of phospholipid and contact activator (ellagic acid) which activates the intrinsic coagulation pathway. After incubating for 3 minutes, calcium chloride is added to initiate coagulation and formation of a fibrin clot is measured optically. The time to clot formation (measured in seconds) is reported as the Activated Partial Thromboplastin Time (aPTT).\nAssessment of the dose-response for the occurrence of any bleeding was a secondary objective.\n(§1) PD analyses were performed on the PD analysis set, defined as subjects who had at least one valid blood sample drawn for PD. Descriptive statistics (N, mean, SD, median, range, CV (%) and IQ range) were used to summarize PD response at each nominal sampling time point by treatment group. Changes from baseline were summarized when applicable. PD response outside of limit of quantitation were not to be imputed and were to be noted in the summary statistics."}, "[7]": {"experiment": "Thorough QT (TQT) study in healthy adults", "format": "in vivo, human", "conditions": "for ΔΔQTcF, highest upper limit of 2-sided 90% CI: Day 1 and Day 4", "protocol": "Pharmacokinetic analysis was performed on the plasma concentrations of each participant."}, "thrombin generation": {"test_system": "thrombin generation", "experiment": "Thrombin Generation Assay (TGA), AXIOMATIC-TKR Phase II", "format": "in vivo, human", "conditions": "25-200 mg QD/BID", "source_text": "As used herein, “Thrombin Generation Assay (TGA)” is a global coagulation assay that evaluates the thrombogenic capacity of a plasma sample and has been proposed that it may better reflect prothrombotic or hemorrhagic states than conventional clotting assays. In the traditional TGA, coagulation of citrated plasma is initiated through the extrinsic pathway by adding tissue factor, phospholipids, and calcium. For this study, in the in-vitro thrombin generation assay (TGA) using human platelet-rich plasma, and a kaolin slurry was used instead to initiate coagulation through the contact activation pathway. Thrombin generation is continuously monitored through the product released by cleavage of a thrombin-specific fluorogenic substrate. The generated thrombogram is used to determine several relevant parameters, including endogenous thrombin potential, defined as the area under the thrombin concentration vs. time curve. […]\nas §1"}, "[8]": {"experiment": "Milvexian clinical program, adverse drug reactions", "format": "in vivo, human", "conditions": "milvexian clinical development program", "source_text": "[…]. […] […]. Milvexian in the two Phase II clinical trials (AXIOMATIC-TKR and AXIOMATIC-SSP) focused on different patient populations."}, "[9]": {"experiment": "Milvexian plasma pharmacokinetics, AXIOMATIC-TKR Phase II", "source_text": "(AXIOMATIC-TKR Phase II). […] Assessment of the dose-response for the occurrence of any bleeding was a secondary objective."}, "[10]": {"experiment": "Steady-state plasma pharmacokinetics of milvexian 100 mg BID"}, "[11]": {"conditions": "cited from earlier work"}, "[12]": {"conditions": "100 mg BID on top of standard care antiplatelet therapy"}},
  "data": [
    {"smiles": "C[C@@H]1CCC[C@H](n2cnc(-c3cc(Cl)ccc3-n3cc(Cl)nn3)cc2=O)c2cc(ccn2)-c2c(cnn2C(F)F)NC1=O", "note": "[Milvexian, (5R,9S)-9-(4-(5-chloro-2-(4-chloro-1H-1,2,3-triazol-1-yl)phenyl)-6-oxopyrimidin-1 (6H)-yl)-2^1-(difluoromethyl)-5-methyl-2^1H-3-aza-1 (4,2)-pyridina-2 (5,4)-pyrazolacyclonaphan-4-one]", "values": [
      {"measurement": "fatal bleeding", "setting": "[1]; AXIOMATIC-TKR / AXIOMATIC-SSP", "result": "No fatal bleeding"},
      {"measurement": "symptomatic intracranial hemorrhage", "setting": "[1]; AXIOMATIC-TKR / AXIOMATIC-SSP", "result": "no increases in symptomatic intracranial hemorrhage"},
      {"measurement": "dose-response for bleeding events", "setting": "[1]; AXIOMATIC-TKR and AXIOMATIC-SSP", "result": "No dose-response relationship"},
      {"measurement": "rate of major bleeding versus placebo", "setting": "[2]; 25 mg once daily and twice daily", "result": "the same as for placebo"},
      {"measurement": "major bleeding (BARC Type 3/5)", "setting": "[2]; 50 mg twice daily and above", "result": "Moderate increases in major bleeding"},
      {"measurement": "renal serious and non-serious adverse events leading to discontinuation", "setting": "[2]; 200 mg twice daily", "result": "higher rate"},
      {"measurement": "study drug discontinuations for adverse events", "setting": "[2]; 200 mg twice daily", "result": "highest rate of study drug discontinuations for adverse events"},
      {"measurement": "ISTH major and CRNM bleeding, and all bleeding", "setting": "[2]; all milvexian doses", "result": "increases in ISTH major and CRNM bleeding (mainly driven by CRNM), as well as all bleeding"},
      {"measurement": "intracranial haemorrhage or symptomatic haemorrhagic transformation of brain infarction (modified BARC type 3c) versus placebo", "setting": "[2]; all milvexian doses", "result": "no increase"},
      {"measurement": "fatal bleeding (BARC type 5)", "setting": "[2]; in the study", "result": "no fatal bleeding"},
      {"measurement": "dose-response for major bleeding", "setting": "[2]; main composite safety endpoint", "result": "no significant dose-response"},
      {"measurement": "incidence of major bleeding", "setting": "[2]; trial population", "result": "1-2%"},
      {"measurement": "median Tmax", "setting": "[3]; healthy volunteers, twice daily", "result": "approximately 3 hours"},
      {"measurement": "terminal plasma half-life (T1/2)", "setting": "[3]; human, oral", "result": "13 to 16", "unit": "h"},
      {"measurement": "VTE reduction versus enoxaparin", "setting": "[4]; 50 mg twice daily", "result": "superior to enoxaparin"},
      {"measurement": "VTE prevention versus enoxaparin 40 mg once daily", "setting": "[4]; 50-200 mg twice daily", "result": "superior to enoxaparin 40 mg once daily"},
      {"measurement": "reduction in total VTE versus enoxaparin", "setting": "[4]; each total daily dose regimen ≥100 mg", "result": "statistically significant reductions in total VTE compared to enoxaparin"},
      {"measurement": "dose-response for primary composite efficacy endpoint", "setting": "[5]; 25 mg QD to 200 mg BID, symptomatic ischaemic stroke and incident covert brain infarction", "result": "no significant dose-response"},
      {"measurement": "symptomatic ischaemic strokes", "setting": "[5]; all doses except 200 mg BID, pre-specified secondary analysis", "result": "numerically fewer symptomatic ischaemic strokes"},
      {"measurement": "incident covert brain infarcts versus placebo", "setting": "[5]; milvexian doses", "result": "no effect compared to placebo"},
      {"measurement": "aPTT dose dependence", "setting": "[6]", "result": "dose related increase in aPTT"},
      {"measurement": "ΔΔQTcF, highest upper limit of 2-sided 90% CI", "setting": "[7]; 100 mg milvexian", "result": 5.16, "unit": "ms"},
      {"measurement": "ΔΔQTcF at milvexian Tmax, upper limit of 90% CI", "setting": "[7]; 100 mg twice daily", "result": "below 10 ms"},
      {"measurement": "ΔΔQTcF, highest upper limit of 2-sided 90% CI", "setting": "[7]; 200 mg milvexian", "result": 4.57, "unit": "ms"},
      {"measurement": "ΔΔQTcF at milvexian Tmax, upper limit of 90% CI", "setting": "[7]; 200 mg twice daily", "result": "below 10 ms"},
      {"measurement": "safety and tolerability", "setting": "[7]; multiple doses of 100 and 200 mg, healthy adults", "result": "generally safe and well tolerated"},
      {"measurement": "QT/QTc interval prolongation", "setting": "[7]; therapeutic (100 mg) and supratherapeutic (200 mg) doses", "result": "does not show evidence of QT/QTc interval prolongation of clinical or regulatory concern"},
      {"measurement": "lag time dose dependence", "setting": "thrombin generation", "result": "dose related prolongation in the lag time"},
      {"measurement": "peak thrombin and area under the curve (total thrombin generation)", "setting": "thrombin generation", "result": "dose related reductions in peak thrombin and area under the curve"},
      {"measurement": "peak thrombin generation dose dependence", "setting": "thrombin generation", "result": "clear and robust dose dependent reduction in peak thrombin generation"},
      {"measurement": "serious bleeding assessed as adverse drug reactions", "setting": "[8]", "result": "gastrointestinal bleeding, procedural hemorrhage, nervous system disorder bleeding (hemorrhagic transformation of ischemic stroke and subdural hematoma) and hematuria"},
      {"measurement": "Tmax", "setting": "[9]; Day 4, 25 mg twice daily", "result": "approximately 2 hours"},
      {"measurement": "Tmax", "setting": "[9]; Day 4, 50 mg once daily", "result": "approximately 4 hours"},
      {"measurement": "Tmax", "setting": "[9]; human, in vivo, po, 100 mg", "result": "~2", "unit": "h"},
      {"measurement": "Tmax", "setting": "[9]; human, in vivo, po, 200 mg", "result": "~4", "unit": "h"},
      {"measurement": "observed concentration, Day 4 12 hours after dosing", "setting": "[9]; in vivo", "result": "higher"},
      {"measurement": "observed concentration, Day 7 12 hours after dosing", "setting": "[9]; in vivo", "result": "lower"},
      {"measurement": "time to steady state of mean trough plasma concentrations", "setting": "[9]; in vivo", "result": "approximately 4 Day"},
      {"measurement": "steady state Cmax, mean (std)", "setting": "[10]; 100 mg BID as monotherapy", "result": "1760 (566) ng/ml"},
      {"measurement": "steady state AUC0-24, mean (std)", "setting": "[10]; 100 mg BID as monotherapy", "result": "36200 (12900) ng*h/mL"},
      {"measurement": "steady state Cmax, mean (std)", "setting": "[10]; [12]", "result": "1670 (536) ng/mL"},
      {"measurement": "steady state AUC0-24, mean (std)", "setting": "[10]; [12]", "result": "35000 (12100) ng*h/mL"}
    ]},
    {"smiles": "COc1ccc(-n2nc(C(N)=O)c3c2C(=O)N(c2ccc(N4CCCCC4=O)cc2)CC3)cc1", "note": "[apixaban]", "values": [
      {"measurement": "VTE prevention versus enoxaparin 40 mg once daily", "setting": "[11]; 2.5 mg twice daily, orthopedic surgery, historical Phase 3", "result": "superior to enoxaparin 40 mg once daily"},
      {"measurement": "bleeding", "setting": "[11]; Phase 2 orthopedic surgery studies and with antiplatelets after an ACS", "result": "dose-related bleeding"}
    ]}
  ]
}
